Active and inactive are the calls of the source. The calls are words filed in the database; no cut-off is given here.
Columns and labels:
[1] = molecular target: Mitogen-activated protein kinase kinase kinase kinase 4 (Homo sapiens) (UniProt O95819); test: Inhibition of human HGK at 100 nM by kinase profiling assay relative to control
[2] = molecular target: Serine/threonine-protein kinase PAK 4 (Homo sapiens) (UniProt O96013); test: Inhibition of human PAK4 at 100 nM by kinase profiling assay relative to control
[3] = tested on: HCT-116; test: Growth inhibition of human HCT-116 cells incubated for 48 hrs by CCK-8 assay; format: functional
[4] = C0 in Sprague-Dawley rat at 2 mg/kg,iv administration measured for 0.25 to 24 hrs by LC-MS/MS analysis; format: ADME, organism-based; conditions: in vivo, time 0.25-24 hrs
[5] = Tmax in Sprague-Dawley rat at 2 mg/kg,iv administration measured for 0.25 to 24 hrs by LC-MS/MS analysis; format: ADME, organism-based; conditions: in vivo, time 0.25-24 hrs
[6] = molecular target: Cyclin-dependent kinase 5 (Homo sapiens, UniProt Q00535); test: Inhibition of CDK5 (unknown origin)
[7] = tested on: SW480; test: Growth inhibition of human SW480 cells incubated for 48 hrs by CCK-8 assay; format: functional
[8] = tested on: HCT-116; test: Induction of apoptosis in human HCT-116 cells assessed as effect on RNA polymerase II expression at 25 to 400 nM incubated for 48 hrs by Western blotting analysis; format: functional, cell-based; conditions: dose 25-400 nM
[9] = AUC (0 to infinity) in Sprague-Dawley rat at 2 mg/kg,iv administration measured for 0.25 to 24 hrs by LC-MS/MS analysis; format: ADME, organism-based; conditions: in vivo, time 0.25-24 hrs
[10] = tested on: HCT-116; test: Antitumor activity against human HCT-116 cells xenografted in BALB/c mouse assessed as tumor growth inhibition at po administrated once daily for 3 weeks; format: functional, organism-based
[11] = molecular target: Aurora kinase B (Homo sapiens) (UniProt Q96GD4); test: Inhibition of human AurB at 100 nM by kinase profiling assay relative to control
[12] = tested on: HCT-116; test: Induction of apoptosis in human HCT-116 cells assessed as increase in red fluorescence emission by TUNEL staining fluorescence microscopic analysis; format: functional, cell-based
[13] = MRT (0 to infinity) in Sprague-Dawley rat at 10 mg/kg,po administration measured for 0.25 to 24 hrs by LC-MS/MS analysis; format: ADME, organism-based; conditions: in vivo, time 0.25-24 hrs
[14] = molecular target: Inhibitor of nuclear factor kappa-B kinase subunit alpha (Homo sapiens) (UniProt O15111); test: Inhibition of human IKKalpha at 100 nM by kinase profiling assay relative to control
[15] = MRT (0 to t) in Sprague-Dawley rat at 10 mg/kg,po administration measured for 0.25 to 24 hrs by LC-MS/MS analysis; format: ADME, organism-based; conditions: in vivo, time 0.25-24 hrs
[16] = tested on: HCT-116; test: Induction of apoptosis in human HCT-116 cells assessed as downregulation of PARP expression at 25 to 400 nM incubated for 48 hrs by Western blotting analysis; format: functional, cell-based; conditions: dose 25-400 nM
[17] = molecular target: Glycogen synthase kinase-3 beta (Homo sapiens) (UniProt P49841); test: Inhibition of human GSK3beta at 100 nM by kinase profiling assay relative to control
[18] = molecular target: Cyclin-dependent kinase 1 (Homo sapiens, UniProt P06493); test: Inhibition of CDK1 (unknown origin)
[19] = tested on: HCT-116; test: Induction of apoptosis in human HCT-116 cells assessed as downregulation of […] mRNA expression at 25 to 400 nM incubated for 48 hrs by qRT-PCR analysis; format: functional, cell-based; conditions: dose 25-400 nM
[20] = molecular target: Protein kinase C alpha type (Homo sapiens) (UniProt P17252); test: Inhibition of human PKCalpha at 100 nM by kinase profiling assay relative to control
[21] = tested on: HCT-116; test: Induction of apoptosis in human HCT-116 cells assessed as downregulation of XIAP mRNA expression at 25 to 400 nM incubated for 48 hrs by qRT-PCR analysis; format: functional, cell-based; conditions: dose 25-400 nM
[22] = molecular target: Cyclin-dependent kinase 8 (Homo sapiens, UniProt P49336); test: Inhibition of CDK8 (unknown origin)
[23] = Half life in human liver microsomes at 100 uM measured upto 60 mins in presence of NADPH by LC-MS/MS analysis; format: ADME, Microsome
[24] = MRT (0 to infinity) in Sprague-Dawley rat at 2 mg/kg,iv administration measured for 0.25 to 24 hrs by LC-MS/MS analysis; format: ADME, organism-based; conditions: in vivo, time 0.25-24 hrs
[25] = molecular target: T1, CYP1A2 (Homo sapiens, UniProt P05177); test: Inhibition of CYP1A2 in human liver microsomes using alpha-naphthoflavone as […] at 10 uM preincubated for 10 mins followed by NADPH addition measured after 15 mins by LC-MS/MS analysis relative to control; format: ADME, Microsome; conditions: time 25 min
T1 sequence (P05177 whole entry): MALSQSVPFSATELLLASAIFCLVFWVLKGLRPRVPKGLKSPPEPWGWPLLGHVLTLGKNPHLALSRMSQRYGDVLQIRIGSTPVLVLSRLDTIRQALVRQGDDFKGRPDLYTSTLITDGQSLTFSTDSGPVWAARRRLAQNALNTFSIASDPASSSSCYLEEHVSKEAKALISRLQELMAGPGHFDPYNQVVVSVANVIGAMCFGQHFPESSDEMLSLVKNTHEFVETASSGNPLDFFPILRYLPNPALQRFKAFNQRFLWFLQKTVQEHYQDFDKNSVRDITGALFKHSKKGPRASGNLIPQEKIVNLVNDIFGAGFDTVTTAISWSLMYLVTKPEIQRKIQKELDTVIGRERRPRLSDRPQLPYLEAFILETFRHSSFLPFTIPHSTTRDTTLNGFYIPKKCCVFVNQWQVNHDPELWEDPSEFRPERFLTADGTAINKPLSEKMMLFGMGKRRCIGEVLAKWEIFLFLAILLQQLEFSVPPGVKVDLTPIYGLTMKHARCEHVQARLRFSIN

[26] = tested on: HCT-116; test: Induction of apoptosis in human HCT-116 cells assessed as increase in early apoptotic cells incubated for 48 hrs by Annexin V-FITC/PI staining based flow cytometric analysis; format: functional, cell-based
[27] = tested on: HCT-116; test: Induction of apoptosis in human HCT-116 cells assessed as increase in late apoptotic cells incubated for 48 hrs by Annexin V-FITC/PI staining based flow cytometric analysis; format: functional, cell-based
[28] = tested on: HCT-116; test: Induction of apoptosis in human HCT-116 cells assessed as downregulation of c-Myc mRNA expression at 25 to 400 nM incubated for 48 hrs by qRT-PCR analysis; format: functional, cell-based; conditions: dose 25-400 nM
[29] = tested on: HCT-116; test: Antitumor activity against human HCT-116 cells xenografted in BALB/c mouse assessed as downregulation of RNA polymerase II phosphorylation at 50 mg/kg,po administrated once daily for 3 weeks by Western blotting analysis; format: functional, organism-based
[30] = tested on: HCT-116; test: Induction of apoptosis in human HCT-116 cells assessed as downregulation of cleaved caspase-3 expression at 25 to 400 nM incubated for 48 hrs by Western blotting analysis; format: functional, cell-based; conditions: dose 25-400 nM
[31] = molecular target: CYP2C19 (Homo sapiens, UniProt P33261); test: Inhibition of CYP2C19 in human liver microsomes using benzylnirvanol as […] at 10 uM preincubated for 10 mins followed by NADPH addition measured after 15 mins by LC-MS/MS analysis relative to control; format: ADME, Microsome; conditions: probe benzylnirvanol, time 25 min
[32] = MRT (0 to t) in Sprague-Dawley rat at 2 mg/kg,iv administration measured for 0.25 to 24 hrs by LC-MS/MS analysis; format: ADME, organism-based; conditions: in vivo, time 0.25-24 hrs

CYP2C19, sequence (P33261 whole entry): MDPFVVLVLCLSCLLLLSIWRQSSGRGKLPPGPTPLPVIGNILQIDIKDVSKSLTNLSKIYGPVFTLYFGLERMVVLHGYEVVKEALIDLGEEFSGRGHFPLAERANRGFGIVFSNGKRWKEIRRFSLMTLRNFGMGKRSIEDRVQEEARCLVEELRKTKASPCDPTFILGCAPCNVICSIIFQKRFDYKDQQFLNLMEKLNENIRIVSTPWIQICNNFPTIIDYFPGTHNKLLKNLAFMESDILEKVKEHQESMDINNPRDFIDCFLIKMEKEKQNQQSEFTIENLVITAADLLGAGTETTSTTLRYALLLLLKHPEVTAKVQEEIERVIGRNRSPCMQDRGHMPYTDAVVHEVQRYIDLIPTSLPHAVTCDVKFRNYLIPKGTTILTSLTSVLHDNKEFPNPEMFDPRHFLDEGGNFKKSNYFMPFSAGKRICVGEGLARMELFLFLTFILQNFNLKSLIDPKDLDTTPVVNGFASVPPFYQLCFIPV
Serine/threonine-protein kinase PAK 4 (Homo sapiens), sequence (O96013 whole entry, looked up): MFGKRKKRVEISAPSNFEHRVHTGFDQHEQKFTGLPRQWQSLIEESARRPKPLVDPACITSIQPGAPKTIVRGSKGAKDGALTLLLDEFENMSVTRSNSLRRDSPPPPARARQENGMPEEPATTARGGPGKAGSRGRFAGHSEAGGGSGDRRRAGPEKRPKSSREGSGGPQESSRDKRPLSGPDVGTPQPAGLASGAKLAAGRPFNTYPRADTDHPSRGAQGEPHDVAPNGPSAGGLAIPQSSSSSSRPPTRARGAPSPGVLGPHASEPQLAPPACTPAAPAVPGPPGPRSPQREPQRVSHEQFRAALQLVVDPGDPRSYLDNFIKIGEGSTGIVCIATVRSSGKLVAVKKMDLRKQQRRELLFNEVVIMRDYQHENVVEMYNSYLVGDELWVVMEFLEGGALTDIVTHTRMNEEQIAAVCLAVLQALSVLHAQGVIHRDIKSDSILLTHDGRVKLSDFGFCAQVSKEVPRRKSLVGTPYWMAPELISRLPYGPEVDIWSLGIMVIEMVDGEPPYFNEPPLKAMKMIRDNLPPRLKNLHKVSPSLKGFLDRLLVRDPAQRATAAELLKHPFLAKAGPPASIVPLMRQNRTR
Inhibitor of nuclear factor kappa-B kinase subunit alpha (Homo sapiens), sequence (O15111 whole entry): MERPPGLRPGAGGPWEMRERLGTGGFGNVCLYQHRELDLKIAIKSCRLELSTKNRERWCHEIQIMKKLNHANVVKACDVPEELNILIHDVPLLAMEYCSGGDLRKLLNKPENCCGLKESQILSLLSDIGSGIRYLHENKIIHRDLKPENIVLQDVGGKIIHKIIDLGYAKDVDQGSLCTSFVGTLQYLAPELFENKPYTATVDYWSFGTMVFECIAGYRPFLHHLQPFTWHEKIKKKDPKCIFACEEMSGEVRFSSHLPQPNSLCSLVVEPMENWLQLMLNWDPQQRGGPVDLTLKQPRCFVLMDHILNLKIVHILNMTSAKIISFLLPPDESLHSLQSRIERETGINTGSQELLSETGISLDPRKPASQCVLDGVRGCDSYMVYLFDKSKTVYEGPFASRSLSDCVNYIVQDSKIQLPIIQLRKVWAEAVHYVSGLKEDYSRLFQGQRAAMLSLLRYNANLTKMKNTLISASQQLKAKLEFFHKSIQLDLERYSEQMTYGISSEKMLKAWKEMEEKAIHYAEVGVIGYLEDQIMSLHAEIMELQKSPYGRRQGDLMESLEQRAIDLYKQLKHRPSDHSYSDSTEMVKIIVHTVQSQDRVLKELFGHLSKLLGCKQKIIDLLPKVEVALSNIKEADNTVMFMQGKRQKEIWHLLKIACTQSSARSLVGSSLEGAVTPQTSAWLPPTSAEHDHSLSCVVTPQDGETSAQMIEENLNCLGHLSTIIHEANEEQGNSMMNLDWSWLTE
Glycogen synthase kinase-3 beta (Homo sapiens), sequence (P49841 whole entry, looked up): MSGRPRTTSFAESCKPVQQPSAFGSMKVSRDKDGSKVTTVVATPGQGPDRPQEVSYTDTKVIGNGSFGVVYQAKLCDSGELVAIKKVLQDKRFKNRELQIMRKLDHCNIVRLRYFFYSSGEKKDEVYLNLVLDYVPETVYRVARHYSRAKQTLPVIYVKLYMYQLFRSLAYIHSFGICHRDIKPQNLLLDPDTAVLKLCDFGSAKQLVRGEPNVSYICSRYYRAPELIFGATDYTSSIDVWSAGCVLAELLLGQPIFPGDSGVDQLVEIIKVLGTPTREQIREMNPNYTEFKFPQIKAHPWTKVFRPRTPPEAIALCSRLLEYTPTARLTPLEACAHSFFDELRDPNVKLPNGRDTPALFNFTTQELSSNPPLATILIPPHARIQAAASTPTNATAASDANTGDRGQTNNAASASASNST
Aurora kinase B (Homo sapiens), sequence (Q96GD4 whole entry): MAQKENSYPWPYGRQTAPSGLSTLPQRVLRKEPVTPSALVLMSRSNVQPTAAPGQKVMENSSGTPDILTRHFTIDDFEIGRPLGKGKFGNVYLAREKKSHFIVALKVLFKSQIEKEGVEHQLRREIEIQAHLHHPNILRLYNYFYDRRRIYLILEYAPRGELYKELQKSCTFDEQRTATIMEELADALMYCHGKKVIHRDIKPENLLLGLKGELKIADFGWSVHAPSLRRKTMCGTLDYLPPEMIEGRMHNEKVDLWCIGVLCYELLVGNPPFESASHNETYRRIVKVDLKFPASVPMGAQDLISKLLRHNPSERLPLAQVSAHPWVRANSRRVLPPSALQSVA
Cyclin-dependent kinase 5, sequence (Q00535 whole entry): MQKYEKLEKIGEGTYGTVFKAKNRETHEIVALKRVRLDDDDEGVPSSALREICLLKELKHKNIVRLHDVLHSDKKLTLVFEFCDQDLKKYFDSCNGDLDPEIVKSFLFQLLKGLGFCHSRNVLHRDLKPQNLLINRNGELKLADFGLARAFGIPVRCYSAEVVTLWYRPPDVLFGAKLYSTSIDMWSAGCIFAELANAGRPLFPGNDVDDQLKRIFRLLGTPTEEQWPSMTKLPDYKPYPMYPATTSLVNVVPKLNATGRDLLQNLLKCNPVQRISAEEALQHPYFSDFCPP
Cyclin-dependent kinase 1, sequence (P06493 whole entry): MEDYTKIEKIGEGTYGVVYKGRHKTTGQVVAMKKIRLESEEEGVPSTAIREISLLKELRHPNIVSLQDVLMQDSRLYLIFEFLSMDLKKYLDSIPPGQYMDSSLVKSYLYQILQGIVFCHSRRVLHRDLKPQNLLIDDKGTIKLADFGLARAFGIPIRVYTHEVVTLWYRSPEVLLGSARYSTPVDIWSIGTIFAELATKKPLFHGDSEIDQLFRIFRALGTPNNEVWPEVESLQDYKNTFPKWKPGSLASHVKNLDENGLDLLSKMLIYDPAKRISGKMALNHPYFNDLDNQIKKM
Cyclin-dependent kinase 8, sequence (P49336 whole entry): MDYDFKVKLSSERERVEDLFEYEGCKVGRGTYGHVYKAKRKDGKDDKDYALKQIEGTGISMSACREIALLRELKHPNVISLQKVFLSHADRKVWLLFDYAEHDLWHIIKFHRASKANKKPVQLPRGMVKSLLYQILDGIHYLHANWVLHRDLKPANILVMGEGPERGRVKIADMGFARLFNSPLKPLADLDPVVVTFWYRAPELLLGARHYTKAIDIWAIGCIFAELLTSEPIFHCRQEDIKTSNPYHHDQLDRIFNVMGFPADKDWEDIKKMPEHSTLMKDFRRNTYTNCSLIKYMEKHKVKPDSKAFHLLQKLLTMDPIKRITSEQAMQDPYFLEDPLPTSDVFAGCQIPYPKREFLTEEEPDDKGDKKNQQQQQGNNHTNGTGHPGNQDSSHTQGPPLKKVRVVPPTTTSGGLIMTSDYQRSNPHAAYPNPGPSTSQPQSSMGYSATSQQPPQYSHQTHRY

CC(C)n1nnc2ccc(-c3ccnc(Nc4cc(C(=O)N5CCCN(C)CC5)ccn4)c3)cc21
inhibition [1]: < 50% | inhibition [2]: < 50% | GI50 [3]: 50 nM | C0 [4]: 459 ng/mL | Tmax [5]: 4.98 min | IC50 [6]: > 500 nM | GI50 [7]: 5090 nM | Activity [8]: inactive | AUC(0-inf) [9]: 373 ng·h/mL | Activity [10]: Dose-Dependent Effect | inhibition [11]: < 50% | Activity [12]: Dose-Dependent Effect | MRT inf [13]: 7.02 h | inhibition [14]: < 50% | MRT last [15]: 4.62 h | Activity [16]: Active | inhibition [17]: < 50% | IC50 [18]: 439 nM | Activity [19]: Active | inhibition [20]: < 50% | Activity [21]: Active | IC50 [22]: > 500 nM | half-life at 100 µM [23]: 0.42 h | MRT inf [24]: 1.77 h | inhibition at 0.25 h, 10 µM [25]: 34.6% | Activity [26]: Dose-Dependent Effect | Activity [27]: Dose-Dependent Effect | Activity [28]: Active | Activity [29]: Active | Activity [30]: Active | inhibition at 0.25 h, 10 µM [31]: 24.5% | MRT last [32]: 1.48 h
